The source of these data is PMC8373237 (Antimicrobial Agents and Chemotherapy, 2021).

One series in a line: Kinetic solubility. In kind it is physicochemical. The procedure:
[…] Then, […] of 15 mM stock compound was added to make a solution of 120 μM final concentration with 0.8% DMSO. The solution was shaken at 37°C for ∼2 h. The solution was passed over a 0.7- μM glass fiber filter. Then, the solution was diluted 1:4 in acetonitrile to crash out any proteins. The solution was centrifuged at 500 × g for 10 min. Avoiding the pellet, 10 μl of supernatant was added to a fresh plate with 90 μl of acetonitrile. The final dilution is 40 times lower. Next, 10 μl of 40× dilution of solution was injected on the Orbi-trap. A 1 μM standard was used for the ratiometric comparison, and the assay was done in triplicate.

For series [1], the system named is P. aeruginosa PA103 T3SS (ExoU secretion). It counts as cell-based, Pseudomonas aeruginosa.
For series [2], the system named is Pseudomonas aeruginosa Psc T3SS. Particulars: culture-based secretion assay, cited from earlier work.
In series [3] the test system is Yersinia pseudotuberculosis Ysc T3SS. Conditions: cited from earlier work; for IC50: culture-based secretion assay.
The test system of series [4] is Hrc1 T3SS, Pseudomonas syringae. Conditions: biochemical assay, cited from earlier work; for lowest known inhibitory concentration (∼), hrpA: ref [108].
Series [5] relates to Chlamydiales T3SS, Chlamydia. Conditions: cell-based infection assay, cited from earlier work.
For series [6], the system named is Salmonella enterica Typhimurium SPI-1 T3SS. Particulars: cited from earlier work.
Series [7] has as its system Y. pseudotuberculosis twin arginine translocation (Tat) system. In kind it is cell-based, Yersinia pseudotuberculosis. Conditions: culture optical density, 4 and 6 h.
The subject of series [8] is Pseudomonas aeruginosa Psc T3SS. Particulars: cited from earlier work.
The mark [9] stands for this setting: read-out: IC50, inhibition of secretion of T3SS effector ExoU.

By solubility is commonly meant how much of the substance goes into solution per volume. Higher therefore signals a readily soluble substance. By IC50 is commonly meant the midpoint of a concentration-inhibition curve. What is called kinetic solubility is solubility judged after dilution from a stock solution rather than from solid.

Converted amounts (≈) assume the structure as drawn. Like-named read-outs stand apart in the source and are kept apart here. Marks after values point to notes of the source that are not given here. Square brackets hold non-standard residues; d marks the D form. Peptide text beside a SMILES is read from it. Nphe = O=C(O)CNCc1ccccc1; NPrGly = CCCNCC(=O)O; Sar = CNCC(=O)O

With `CCCN1CC(=O)N(Cc2ccccc2)CC(=O)N[C@H](C)C(=O)N[C@@H]([C@@H](C)CC)C(=O)N[C@@H](CC(C)C)C(=O)N[C@H](Cc2ccccc2)C1=O` [1EpDN 3Ala, EpD1,2N 3Ala] (cyclo(IL[dF][NPrGly][Nphe][dA])), in the series “Kinetic solubility”, the concentration in solution (solubility) was 180 µM (≈ 124 µg/mL). Moreover, in series [1] (read-out: IC50 (Table S1)), the IC50 is greater than 1000 µM. `CCCN1CC(=O)N(Cc2ccccc2)CC(=O)N[C@H](CC(C)C)C(=O)N[C@@H](C)C(=O)N[C@@H](CC(C)C)C(=O)N[C@H](Cc2ccccc2)C1=O` [1EpDN 4Ala, EpD1,2N 4Ala] (cyclo(AL[dF][NPrGly][Nphe][dL])) returned a kinetic solubility in “Kinetic solubility” of 75 µM (≈ 51.8 µg/mL). Further, the IC50 in [1] (read-out: IC50 (Table S1)) was greater than 1000 µM.

The compound `CCCN1CC(=O)N(Cc2ccccc2)CC(=O)N[C@H](CC(C)C)C(=O)N[C@@H]([C@@H](C)CC)C(=O)N[C@@H](C)C(=O)N[C@H](Cc2ccccc2)C1=O` [1EpDN 5Ala, EpD1,2N 5Ala] (cyclo(A[dF][NPrGly][Nphe][dL]I)) showed a solubility (kinetic) in the series “Kinetic solubility” of 127 µM (≈ 87.7 µg/mL). In addition, the IC50 in series [1] (read-out: IC50 (Table S1)) is greater than 1000 µM. The like results for `CCCN1CC(=O)N(Cc2ccccc2)CC(=O)N[C@H](CC(C)C)C(=O)N[C@@H]([C@@H](C)CC)C(=O)N[C@@H](CC(C)C)C(=O)N[C@H](C)C1=O` [1EpDN 6Ala, EpD1,2N 6Ala] (cyclo(IL[dA][NPrGly][Nphe][dL])) were, in that order, 125 µM (≈ 82.1 µg/mL) and greater than 1000 µM.

Turning to `CCCN1CC(=O)N(Cc2ccccc2)CC(=O)N[C@H](CC(C)C)C(=O)N[C@@H]([C@@H](C)CC)C(=O)N[C@@H](CC(C)C)C(=O)N[C@H](Cc2ccccc2)C1=O` [1EpDN, EpD1,2N] (cyclo(IL[dF][NPrGly][Nphe][dL])), the IC50 in series [2] (ref [22], read-out: IC50, ExoU secretion) is 8.2 µM; in series [1] (read-out: IC50 (Table S1)), 8.2 µM; in series [1] (setting [9]) it was roughly 8 µM; in [3] (ref [22], read-out: IC50, YopE secretion) it was 14.3 µM. For the same compound, in “Kinetic solubility”, the solubility lay within 14 to 17 µM (≈ 10.3 to 12.5 µg/mL). Compound `CCCN1CC(=O)N(Cc2ccccc2)CC(=O)N[C@@H](CC(C)C)C(=O)N[C@@H]([C@@H](C)CC)C(=O)N[C@@H](CC(C)C)C(=O)N[C@H](Cc2ccccc2)C1=O` [2EpDN, 2-EpD1,2N] (cyclo(IL[dF][NPrGly][Nphe]L)) displayed a solubility (kinetic) in the series “Kinetic solubility” of 12 µM (≈ 8.8 µg/mL). Moreover, in series [1] (read-out: IC50 (Table S1)), the IC50 worked out at 15.3 µM. For `CCCN1CC(=O)N(Cc2ccccc2)CC(=O)N[C@H](CC(C)C)C(=O)N[C@@H]([C@@H](C)CC)C(=O)N[C@H](CC(C)C)C(=O)N[C@H](Cc2ccccc2)C1=O` [3EpDN, 3-EpD1,2N] (cyclo(I[dL][dF][NPrGly][Nphe][dL])) the same measures were 18 µM (≈ 13.2 µg/mL) and 16 µM. For the compound `O=C(O)c1ccc(O)cc1` [4-Hydroxybenozic acid], in series [4], the “lowest known inhibitory concentration (∼), hrpA” value is listed as “∼2.5 mM hrpA^e”. Turning to `CC[C@H](C)[C@@H]1NC(=O)[C@H](CC(C)C)NC(=O)CN(Cc2ccccc2)C(=O)CN(C)C(=O)[C@@H](Cc2ccccc2)NC(=O)[C@@H](CC(C)C)NC1=O` [4EpDN 1Sar, 4-EpD1,2N 1Sar] (cyclo(I[dL][dF][Sar][Nphe]L)), the solubility in the series “Kinetic solubility” (DMEM (no antibiotics)) is 6 µM (≈ 4.23 µg/mL); in “Kinetic solubility” (M9), 4 µM (≈ 2.82 µg/mL). Further, in series [1], the “T3SS inhibitory activity (ExoU secretion), in words” value is “significantly reduced activity”. For the same compound, the IC50 in series [1] (read-out: IC50 (Table S1)) stood at 19 µM. For the compound `CCCN1CC(=O)N(Cc2ccccc2)CC(=O)N[C@@H](CC(C)C)C(=O)N[C@@H]([C@@H](C)CC)C(=O)N[C@H](CC(C)C)C(=O)N[C@@H](Cc2ccccc2)C1=O` [5EpDN, 5-EpD1,2N] (cyclo(F[NPrGly][Nphe]LI[dL])), the kinetic solubility in the series “Kinetic solubility” amounted to 13 µM (≈ 9.53 µg/mL). The IC50 in series [1] (read-out: IC50 (Table S1)) was 6.3 µM.

Take `CCCN1CC(=O)N(Cc2ccccc2)CC(=O)N[C@H](CC(C)C)C(=O)N[C@@H]([C@@H](C)CC)C(=O)N[C@H](CC(C)C)C(=O)N[C@@H](Cc2ccccc2)C1=O` [6EpDN, 6-EpD1,2N] (cyclo(F[NPrGly][Nphe][dL]I[dL])): the kinetic solubility in “Kinetic solubility” is 1 µM (≈ 0.733 µg/mL). Besides, in series [1] (read-out: IC50 (Table S1)), the IC50 was greater than 1000 µM. With `CCCN1CC(=O)N(Cc2ccccc2)CC(=O)N[C@H](CC(C)C)C(=O)N[C@@H]([C@@H](C)CC)C(=O)N[C@@H](CC(C)C)C(=O)N[C@@H](Cc2ccccc2)C1=O` [8EpDN, 8-EpD1,2N] (cyclo(F[NPrGly][Nphe][dL]IL)), the kinetic solubility in the series “Kinetic solubility” stood at 1 µM (≈ 0.733 µg/mL). Moreover, in series [1] (read-out: IC50 (Table S1)), the IC50 came to 41.5 µM.

As for `CCCN1CC(=O)N(Cc2ccccc2)CC(=O)N[C@@H](CC(C)C)C(=O)N[C@H]([C@H](C)CC)C(=O)N[C@H](CC(C)C)C(=O)N[C@@H](Cc2ccccc2)C1=O` [9EpDN, 9-EpD1,2N] (cyclo(F[NPrGly][Nphe]L[dI][dL])), the solubility (kinetic) in the series “Kinetic solubility” came out at 10 µM (≈ 7.33 µg/mL). For the same compound, the values for the IC50 in series [1] (read-out: IC50 (Table S1)) and in [1] (setting [9]) were 12.8 µM and roughly 13 µM, respectively.

As for `O=c1cc(-c2ccccc2)oc2cc(O)c(O)c(O)c12` [Baicalein], the IC50 in [5] (ref [84], [85]) is 500 µM; in [6] (culture-based secretion assay, ref [84], [85], read-out: IC50, SopE2 secretion), 3.6 µM. As for `Cc1ccc(S(=O)(=O)/C=C/C#N)cc1` [Bay 11-7082], the “growth of SufI-β-lactamase Tat reporter bacteria in penicillin G / Tat inhibition, in words” value in series [7] is “strongly reduced growth of bacteria”. For `CCOc1cc(CN2N=C(C(=O)Nc3ccc(F)cc3F)SCC2=O)ccc1O` [Fluorothiazinon], in series [2] (ref [93]–[96]), the “lowest known inhibitory concentration (∼), ExoT, ExoY secretion” value is listed as “∼20 μg/ml ExoT^b ExoY^b”. In addition, the “lowest known inhibitory concentration (∼), Chlamydia” value in series [5] (ref [93]–[96]) is listed as “∼25^c μM”. Moreover, the “lowest known inhibitory concentration (∼), SipA” value in series [6] (footnote printed as a, ref [93]–[96]) is roughly 50 µM. On to `CCCCc1ccc(C(=O)O)nc1` [Fusaric acid], for which the IC50 in series [6] (culture-based secretion assay, ref [101], read-out: IC50, SipC secretion) was 53.5 µM. As to `O=C(N/N=C/c1cc(Br)cc(Br)c1O)c1ccc([N+](=O)[O-])cc1` [INP0007], the “lowest known inhibitory concentration (∼), SipAC secretion” value in [6] (culture-based secretion assay, ref [64], [72]) was “∼100 SipAC^b μM”. Further, in series [3], the “lowest known inhibitory concentration (∼), YopE secretion” value was “∼50 YopE^b μM”. In the case of `Cc1cc(Cl)cc(/C=N/NC(=O)c2ccc(O)cc2O)c1O` [INP0341], in series [5] (ref [68], [70]), the “lowest known inhibitory concentration (∼), Chlamydia” value was “∼20^c μM”. The “lowest known inhibitory concentration (∼), PA” value in series [8] (cell-based infection assay, ref [68], [70]) is listed as “∼80^c μM”. With `O=C(N/N=C/c1c(O)ccc2ccccc12)c1ccc(Cl)cc1` [INP0400], the “lowest known inhibitory concentration (∼), Chlamydia” value in series [5] (ref [70]) was “∼20^c μM”. For `O=C(N/N=C/c1ccc(O)c(O)c1O)c1ccccc1` [INP0401], in series [4] (ref [78]), the “lowest known inhibitory concentration (∼), hrp” value is given as “∼50 hrp^e μM”.

In the case of `CC(C)=CCc1c(O)cc2oc(-c3ccc(O)cc3)c(O)c(=O)c2c1O` [Licoflavonol], the “lowest known inhibitory concentration (∼), SipC secretion” value in series [6] (culture-based secretion assay, ref [86]) is recorded as “∼50 SipC^b μM”. With `CC(Oc1ccc(Cl)cc1Cl)C(=O)NCc1ccc2c(c1)OCO2` (centres unmarked) [MBX1641], the IC50 in [2] (ref [65], read-out: IC50, ExoS secretion) was 10 µM. Moreover, the “lowest known inhibitory concentration (∼), Chlamydia” value in series [5] (ref [65]) is reported as “∼10^c μM”. As to `CCC(Oc1ncc(Cl)cc1Cl)C(=O)NCc1ccc2sccc2c1` (centres unmarked) [MBX2401], the IC50 in series [2] (ref [44], read-out: IC50, ExoS secretion) was 1.2 µM. In the case of `O=C(N/N=C/c1cc(Br)cc(Br)c1O)c1cccnc1` [ME0052], the “lowest known inhibitory concentration (∼), Yops secretion” value in [3] is on record as “∼20 Yops^b μM”.

For the compound `COc1c2cc(c(O)c1OC)CCCC[C@@H](O)CCc1ccc(O)c-2c1` [Myricanol], the IC50 in series [6] (footnote printed as a, ref [107], read-out: IC50, SipC) was 41.3 µM. On to `O=C1C=CC(=O)N1c1ccccc1` [N-phenylmaleimide], for which the “growth of SufI-β-lactamase Tat reporter bacteria in penicillin G / Tat inhibition, in words” value in [7] is reported as “strongly reduced growth of bacteria”.

With `COc1ccc(C(C)=O)c(O)c1` [Paeonol], in series [6] (culture-based secretion assay, ref [99]), the “lowest known inhibitory concentration (∼), Sips secretion” value is “∼95 Sips^b μM”.

Regarding `C[n+]1cc2c3c(ccc2c2ccc4cc5c(cc4c21)OCO5)OCO3` [Sanguinarine chloride], the “lowest known inhibitory concentration (∼), SipA” value in series [6] (footnotes b and f: secretion assay and translocation assay, ref [88]) is listed as “∼5 SipA^b^f μM”. In the case of `COc1cc(C=O)cc(OC)c1O` [Syringaldehyde], the “lowest known inhibitory concentration (∼), Sips secretion” value in [6] (culture-based secretion assay, ref [100]) is listed as “∼180 Sips^b μM”. As to `COc1cc(C(=O)O)ccc1O` [Vanillic acid], the “lowest known inhibitory concentration (∼), hrpA” value in [4] is “∼2.5 mM hrpA^e”. For `Cc1c(C)c2c(c(C)c1O)CC[C@@](C)(CCC[C@H](C)CCC[C@H](C)CCCC(C)C)O2` [α-tocopherol], the “lowest known inhibitory concentration (∼), PA, ExoY” value in series [8] (footnotes c and f: cell-based infection assay, ExoY translocation assay, ref [105]) was “∼10^c ExoY^f μM”. In the case of (-)-Hopeaphenol, the “lowest known inhibitory concentration (∼), ExoS secretion” value in [2] (ref [97]) was “∼50 ExoS^b μM”. Also, in series [5] (ref [97]), the “lowest known inhibitory concentration (∼), Chlamydia” value is “∼25^c μM”. Moreover, the IC50 in [3] (ref [97], read-out: IC50, YopD secretion) was 3.3 µM.
